Measured values: US20080194880A1, “Process For the Preparation of Polymorphs of Mesotrione” (priority 2004, published 2008)

How the values were obtained:
Format in all cases: physicochemical
[1] = Conversion of isolated Form 2 mesotrione to Form 1 in water in the presence of xylene at different pH; conditions: xylene:mesotrione 1:5, 21 °C
Description: This is an example of the conversion of already isolated Form 2 mesotrione to Form 1 mesotrione in the presence of solvent. A 10% solution of Form 2 in water was made at different pH values ranging from 2 to 6. If seeded, a seed concentration of 2% Form 1 relative to the Form 2 mesotrione concentration was used. A 1:5 ratio of xylene to mesotrione was used in these experiments. Actual conversion time may be less than shown.

[2] = Stabilising Form 2 mesotrione in a 0.05% Rhodasurf DA630 solution; conditions: pH 5.5, after 10 days
Experimental: 0.5 g of Form 2 mesotrione crystals were stirred with a 0.05% Rhodasurf DA630 (15 ml) in a reaction flask. A pH probe was placed in the system and the pH was increased to 11.5 by the addition of 0.6 ml of 10% sodium hydroxide solution. The pH of the solution was reduced to 5.5 by the addition of 0.74 g of Form 2 mesotrione. The polymorphic form of the mesotrione was monitored periodically by microscopy and FT-IR.

[3] = Conversion of isolated Form 2 mesotrione to Form 1 in process filtrate
[4] = Conversion of isolated Form 2 mesotrione to Form 1 in process filtrate with TEA and NaCl; conditions: not seeded
[5] = Conversion of in-process Form 2 mesotrione slurry from the crystallizer to Form 1; conditions: not seeded
Description: This is an example of converting in process Form 2 mesotrione to Form 1 mesotrione. Form 2 material was made in the plant via a process upset. […]

[6] = Polymorphic stability of pure mesotrione in aqueous suspension at pH 1 to 4
Experimental: 1.6 g of the re-crystallised mesotrione crystals were stirred with water (30 ml) in a reaction flask and the pH increased to 12 by the addition of sodium hydroxide. 1.5 ml of 10% hydrochloric acid was added over 15 minutes to reduce the pH of the solution to pH ranges between 1 and 4. The suspension was stirred and the polymorphic form of the crystals was determined as Form 2 by optical microscopy and FT-IR. Below pH 2.5, Form 2 transformed to Form 1 within 1 hour. At pH 3 Form 2 was stable but converted to Form 1 when seeded with Form 1 over four hours.

## CS(=O)(=O)c1ccc(C(=O)C2C(=O)CCCC2=O)c([N+](=O)[O-])c1 [Form 2 mesotrione, 2-(4-methylsulphonyl-2-nitrobenzoyl)cyclohexane-1,3-dione]
[1]; Example 1A: 10% Form 2 in water, 6.3 hr, pH 2.0, seeded 2% Form 1
  Dominant Polymorph Form (IR): 1
[1]; Example 1B: 10% Form 2 in water, 6.3 hr, pH 2.9, seeded 2% Form 1
  Dominant Polymorph Form (IR): 2
[1]; Example 1C: 10% Form 2 in water, 6.3 hr, pH 4.1, seeded 2% Form 1
  Dominant Polymorph Form (IR): 2
[1]; Example 1D: 10% Form 2 in water, 6.3 hr, pH 5.9, seeded 2% Form 1
  Dominant Polymorph Form (IR): 2
[1]; Example 1E: 10% Form 2 in water, 6.3 hr, pH 2.5, seeded 2% Form 1
  Dominant Polymorph Form (IR): 1
[1]; Example 1F: 10% Form 2 in water, 6.3 hr, pH 5.1, seeded 2% Form 1
  Dominant Polymorph Form (IR): 2
[1]; Example 1G: 10% Form 2 in water, 23.3 hr, pH 2.0, seeded 2% Form 1
  Dominant Polymorph Form (IR): 1
[1]; Example 1H: 10% Form 2 in water, 23.3 hr, pH 2.9, seeded 2% Form 1
  Dominant Polymorph Form (IR): 2
[1]; Example 1I: 10% Form 2 in water, 23.5 hr, pH 5.9, seeded 2% Form 1
  Dominant Polymorph Form (IR): 2
[1]; Example 1J: 10% Form 2 in water, 23.5 hr, pH 2.5, seeded 2% Form 1
  Dominant Polymorph Form (IR): 1
[1]; Example 1K: 10% Form 2 in water, 23.5 hr, pH 2.0, not seeded
  Dominant Polymorph Form (IR): 1
[1]; Example 1L: 10% Form 2 in water, 22.0 hr, pH 2.0, not seeded
  Dominant Polymorph Form (IR): 1
[1]; Example 1M: 10% Form 2 in water, 22.0 hr, pH 4.0, not seeded
  Dominant Polymorph Form (IR): 2
[2]
  Polymorphic form (microscopy and FT-IR): still predominately Form 2
[3]; Example 4A: process filtrate, temp 22, pH 3.6, agitated, seeded, did not convert after 52 hrs
  Hours to convert: Did not
[3]; Example 4B: process filtrate, temp 22, pH 3.6, agitated, seeded, did not convert after 48 hrs
  Hours to convert: Did not
[3]; Example 4C: process filtrate, temp 30, pH 3.6, agitated, seeded, did not convert after 18 hrs
  Hours to convert: Did not
[3]; Example 4D: process filtrate, temp 50, pH 2.0, agitated, not seeded
  Hours to convert: 2 h
[3]; Example 4E: process filtrate, temp 50, pH 1.8, agitated, not seeded
  Hours to convert: 2 h
[3]; Example 4F: process filtrate, temp 50, pH 1.8, not agitated, not seeded
  Hours to convert: 2 h
[4]; Example 3A: process filtrate, temp 40, pH 1.8, no meso:TEA or meso:NaCl ratio printed, agitated
  Hours to convert: 17 h
[4]; Example 3B: process filtrate, temp 50, pH 2.0, meso:TEA 1:1.3, meso:NaCl 2:1, agitated
  Hours to convert: 1 h
[4]; Example 3C: process filtrate, temp 50, pH 2.0, meso:TEA 1:1.3, meso:NaCl 2:1, agitated
  Hours to convert: 5 h
[4]; Example 3D: process filtrate, temp 50, pH 1.8, meso:TEA 1:1.3, meso:NaCl 2:1, agitated
  Hours to convert: 4 h
[5]; Example 2A: Form 2 slurry, 20° C., pH 3.2, not agitated, did not convert after 4-5 days
  Hours to convert: Did not
[5]; Example 2B: Form 2 slurry, 40° C., pH 2.0, agitated
  Hours to convert: 4 h
[5]; Example 2C: Form 2 slurry, 50° C., pH 2.0, agitated
  Hours to convert: 1.4 h
[5]; Example 2D: Form 2 slurry, 50° C., pH 2.9, agitated
  Hours to convert: 1.8 h
[5]; Example 2E: Form 2 slurry, 40° C., pH 2.0, agitated
  Hours to convert: 4 h
[6]; aqueous suspension, pH between 3.5 and 4, heated to 40° C., 1% by weight of Form 1 seeds added
  Transformation of Form 2 to Form 1: would not transform to Form 1
[6]; pH between 3.5 and 4, determined periodically over the next 3 weeks
  Polymorphic form of the suspension: always found to be Form 2
[6]; pH between 3.5 and 4, samples taken several months later
  Transformation of Form 2 to Form 1: had not transformed to Form 1
[6]; stirred aqueous suspension, below pH 2.5
  Time for Form 2 to transform to Form 1: ≤ 1 h
[6]; stirred aqueous suspension, pH 3, not seeded
  Polymorphic stability of Form 2: stable
[6]; stirred aqueous suspension, pH 3, seeded with Form 1
  Time for Form 2 to convert to Form 1: four
